Measured values from patent publication US11666561B2, “Compounds for use in regulating follicle maturation” (AARHUS UNIVERSITET, priority 2017, dated 2023).

System: primordial-to-primary follicle transition
Assay: In vitro organ culture of mouse ovaries with compound, H&E histology and counting of primordial, primary and secondary follicles
Details: marked (ongoing)
Experimental: Ovaries obtained from mice were washed twice with culture medium. Antagonists or agonists to be tested were dissolved in suitable solvents and added to the medium. As a control medium comprising solvent without the antagonist or agonist was used. One of the ovaries was cultured in a control medium and another was cultured with the antagonist or agonist. The tested antagonists or agonists and their concentrations are outlined in table 2.
Ovaries were incubated with antagonist at 37° C. and 5% CO2 for 24 and 96 hours, respectively (see table 3).
Cultures ovaries were fixed, embedded in paraffin and sliced microscopy. The sectioned ovaries were stained with hematoxylin and eosin (H&E) to visualize the morphology of the ovary by microscopy.
The number of primordial, primary and secondary follicles was determined, and it was determined whether the antagonist or agonist was capable of regulating folliculogenesis.
C57BL/6j×CBA F1 hybrid mice (Janvier Labs, France) were housed and bred in the animal facilities at Department of Biomedicine, Aarhus University. Animals were housed in a 12:12 h controlled light-dark environment and were provided with food and water ad libitum. 7-day-old female pups were used for the study.
Pups were sacrificed and ovaries were excised. Using a stereomicroscope MZ75 (Leica Microsystems, Germany), excess tissue was removed. During the dissection, ovaries were kept at 37° C. in culture medium: aMEM (Thermo Fisher) supplemented with 10% FBS (Thermo Fisher), 100 mIU/mL of FSH (Sigma-Aldrich), 100 IU/mL penicillin (Thermo Fisher), 100 μg/mL streptomycin (Thermo Fisher) and 1% Insulin-Transferrin-Selenium (Thermo Fisher). Isolated ovaries were transferred into well inserts (PET membrane ThinCert, 0.4 μm-pore size; Greiner bio-one) in 24-well plates (Tissue culture treated, cell culture plates; Costar). 200-300 μL of culture medium was added to the well below the insert and up to two ovaries were placed on the membrane of each insert. The culture medium was supplemented with different concentrations of the tested compounds; bpV(HOpic) (Sigma-Aldrich), Temsirolimus (Sigma-Aldrich), Ketotifen (Sigma-Aldrich), 3PO (Sigma-Aldrich), Dorsomorphin (Sigma-Aldrich), AICAR (Sigma-Aldrich), NCG (Sigma-Aldrich), and Dyphylline (Cayman Chemical). Up to six wells in the 24-well plate were used for inserts. Sterile dH2O was added to the rest of the wells to ensure humidity and reduce evaporation. The ovaries were cultured at 37° C., 5% CO2 for four days. 150 μL of medium was replaced every other day with fresh culture medium.
Ovaries kept in organ culture for four days were fixed for 24 hours in 4% paraformaldehyde solution at 4° C. After fixation, ovaries were dehydrated in ethanol series using 70%, 96% and 99.9% ethanol. Xylene was used as clearing agent before the ovaries were infiltrated in paraffin wax. 5 μm-sections of samples in paraffin were cut using a microtome (Cut 6062, SLEE medical, Germany). Paraffin sections were mounted on glass slides, paraffin was melted at 60° C., and the samples were stained with hematoxylin and eosin (using standard protocols).
The samples were deparaffinized by incubating in xylene for 2×15 min. and subsequently rehydrated in series of ethanol; 3×2 min. in 99.9% ethanol, 2 min. in 96% ethanol, and 2 min. in 70% ethanol. The samples were then rinsed in dH2O, stained in hematoxylin for 40 sec., rinsed in dH2O for 5 min., and stained in eosin for 46 sec. The samples were dehydrated in ethanol: 2×2 min. in 96% ethanol, 2×2 min in 99.9% ethanol, and finally cleared up in xylene for at least 30 min before mounting the samples using Eukitt mounting medium (Sigma-Aldrich) and cover glass.
The number of follicles at each developmental stage was counted using an inverted research microscope (DM14000B, Leica Microsystems, Germany). The follicles of every 3rd to 4th section of each ovary were counted and the distribution of follicles in the different stages in percentage was determined.

Row | Molecule | Effect (Table 1) | Effect (Table 2)
1 | C=CC(=O)Nc1cc(Nc2nccc(-c3cn(C)c4ccccc34)n2)c(OC)cc1N(C)CCN(C)C [Osimertinib, N-[2-[2-(dimethylamino)ethyl-methylamino]-4-methoxy-5-[[4-(1-methylindol-3-yl)pyrimidin-2-yl]amino]phenyl]prop-2-enamide] | promotes | promotes
2 | CCOc1cc2ncc(C#N)c(Nc3ccc(F)c(Cl)c3)c2cc1NC(=O)/C=C/CN(C)C [Pelitinib, (E)-N-[4-(3-chloro-4-fluoroanilino)-3-cyano-7-ethoxyquinolin-6-yl]-4-(dimethylamino)but-2-enamide] | promotes | promotes
3 | BI 836845: humanised IgG1 monoclonal antibody that binds to and neutralises IGF-1 and IGF-2 (antibody, chains of the INN, looked up, V domains shown) VH: QVELVESGGGLVQPGGSLRLSCAASGFTFTSYWMSWVRQAPGKGLELVSSITSYGSFTYYADSVKGRFTISRDNSKNTLYLQMNSLRAEDTAVYYCARNMYTHFDSWGQGTLVTVSS VL: DIVLTQPPSVSGAPGQRVTISCSGSSSNIGSNSVSWYQQLPGTAPKLLIYDNSKRPSGVPDRFSGSKSGTSASLAITGLQSEDEADYYCQSRDTYGYYWVFGGGTKLTVL | promotes | promotes
4 | MM-141: tetravalent bispecific antibody targeting IGF-1 receptor and ERBB3 (antibody, chains of the INN, looked up, V domains shown) VH: EVQLLQSGGGLVQPGGSLRLSCAASGFMFSRYPMHWVRQAPGKGLEWVGSISGSGGATPYADSVKGRFTISRDNSKNTLYLQMNSLRAEDTAVYYCAKDFYQILTGNAFDYWGQGTTVTVSS VL: DIQMTQSPSSLSASLGDRVTITCRASQGISSYLAWYQQKPGKAPKLLIYAKSTLQSGVPSRFSGSGSGTDFTLTISSLQPEDSATYYCQQYWTFPLTFGGGTKVEIK VH2: QVQLVQSGGGLVQPGGSLRLSCAASGFTFDDYAMHWVRQAPGKGLEWVAGISWDSGSTGYADSVKGRFTISRDNAKNSLYLQMNSLRAEDTALYYCARDLGAYQWVEGFDYWGQGTLVTVSS VL2: SYELTQDPAVSVALGQTVRITCQGDSLRSYYASWYQQKPGQAPVLVIYGKNNRPSGIPDRFSGSTSGNSASLTITGAQAEDEADYYCNSRDSPGNQWVFGGGTKVTVL | promotes | promotes
